# Target: T1, Human Polθ polymerase domain (aa1820-2590) (Homo sapiens, UniProt O75417)
# T1 construct: Human Polθ polymerase domain (aa1820-2590) was expressed in E. coli; made in house; host or cells: E. coli
# T1 sequence (O75417 1820-2590): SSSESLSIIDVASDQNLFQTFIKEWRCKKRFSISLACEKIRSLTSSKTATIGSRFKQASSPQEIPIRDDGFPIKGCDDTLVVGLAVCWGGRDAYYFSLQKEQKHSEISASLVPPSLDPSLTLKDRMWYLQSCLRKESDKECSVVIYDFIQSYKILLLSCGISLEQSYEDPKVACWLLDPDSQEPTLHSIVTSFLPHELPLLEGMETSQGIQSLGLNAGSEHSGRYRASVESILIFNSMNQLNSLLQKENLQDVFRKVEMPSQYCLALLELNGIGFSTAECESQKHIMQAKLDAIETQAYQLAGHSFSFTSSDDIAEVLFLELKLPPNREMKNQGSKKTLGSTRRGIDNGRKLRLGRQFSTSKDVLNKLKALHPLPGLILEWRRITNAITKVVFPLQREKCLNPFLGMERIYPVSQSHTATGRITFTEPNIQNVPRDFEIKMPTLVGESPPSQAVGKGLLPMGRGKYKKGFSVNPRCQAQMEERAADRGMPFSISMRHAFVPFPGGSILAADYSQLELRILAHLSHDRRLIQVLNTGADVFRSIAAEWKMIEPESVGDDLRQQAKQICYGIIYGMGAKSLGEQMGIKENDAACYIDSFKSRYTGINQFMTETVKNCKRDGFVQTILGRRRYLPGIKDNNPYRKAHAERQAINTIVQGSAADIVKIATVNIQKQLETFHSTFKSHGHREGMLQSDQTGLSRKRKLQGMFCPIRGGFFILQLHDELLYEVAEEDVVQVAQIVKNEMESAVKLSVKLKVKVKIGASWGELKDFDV
# Assay: Polθ Polymerase Domain Kinact/KI Assay (PicoGreen)
# Type: biochemical
# Details: 0.8 nM Polθ, 100 nM DNA substrate, kobs vs [I] fit for 2-step covalent inhibitor
# Method in brief: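 Time-dependent inhibition was followed by quenching reactions with EDTA at points up to 60 min, then staining product DNA with PicoGreen fluorescence. Reactions held 0.8 nM E. coli-expressed Polθ, 100 nM primed DNA substrate and […] at pH 7.5, 1% DMSO. kobs versus inhibitor concentration gave Kinact and KI.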
row,SMILES,Kinact/Kl [M⁻¹ s⁻¹]
1,"C=CC(=O)N1CCN(c2cccc(N3C[C@H]4CC(=O)N(c5cc(C(F)(F)F)cc(C)n5)[C@@H]4C(=O)N(C)c4cccc(F)c43)c2)CC1 [Example 54, (3aR,11aS)-5-(3-(4-acryloylpiperazin-1-yl)phenyl)-6-fluoro-10-methyl-1-(6-methyl-4-(trifluoromethyl)pyridin-2-yl)-1,3a,4,5,10,11a-hexahydro-2H-benzo[b]pyrrolo[2,3-f][1,4]diazocine-2,11(3H)-dione]",110000
2,"Cc1cc(C(F)(F)F)cc(N2C(=O)C[C@@H]3CN(CCCOC4CN(C(=O)C5=CCCN(C)C5)C4)c4c(C)cccc4N(C)C(=O)[C@H]32)n1 [Example 196, (3aR,11aS)-6,10-dimethyl-5-(3-((1-(1-methyl-1,2,5,6-tetrahydropyridine-3-carbonyl)azeti-din-3-yl)oxy)prop-yl)-1-(6-methyl-4-(trifluoromethyl)-pyridin-2-yl)-1,3a,4,5,10,11a-hexahydro-2H-benzo[b]pyrrolo [2,3-f][1,4]diazo-cine-2,11(3H)-dione]",2.06e+06
3,"CC(=O)N1CCN(C/C=C/C(=O)Nc2ccc(CN3C[C@H]4CC(=O)N(c5cc(C(F)(F)F)cc(C)n5)[C@@H]4C(=O)N(C)c4cccc(C)c43)cc2)CC1 [Example 249, (E)-4-(4-acetylpiperazin-1-yl)-N-(4-(((3aR,11aS)-6,10-dimethyl-1-(6-methyl-4-(trifluoromethyl)pyridin-2-yl)-2,11-dioxo-1,2,3,3a,4,10,11,11a-octahydro-5H-benzo[b]pyrrolo[2,3-f][1,4]diazocin-5-yl)methyl)phenyl)but-2-enamide]",110000
4,"C=CC(=O)N1CC2(CN(CCN3C[C@H]4CC(=O)N(c5cc(C(F)(F)F)cc(C)n5)[C@@H]4C(=O)N(C)c4cccc(Cl)c43)CC3COCCN32)C1 (single isomer, unassigned) [Example 26a]",690000
5,"C=CC(=O)N1CC(N2CCN(CCN3C[C@H]4CC(=O)N(c5cc(C(F)(F)F)cc(C)n5)[C@@H]4C(=O)N(C)c4cc(F)cc(C)c43)CC2)C1 [Example 18, (3aR,11aS)-5-(2-(4-(1-acryloylazetidin-3-yl)piperazin-1-yl)ethyl)-8-fluoro-6,10-dimethyl-1-(6-methyl-4-(trifluoromethyl)pyridin-2-yl)-1,3a,4,5,10,11a-hexahydro-2H-benzo[b]pyrrolo[2,3-f][1,4]diazocine-2,11(3H)-dione]",1.18e+06
6,"C=CC(=O)N1CCN(CCCN2C[C@H]3CC(=O)N(c4cc(C(F)(F)F)cc(C)n4)[C@@H]3C(=O)N(C)c3cccc(Cl)c32)CC1CC#N (mixture of isomers) [Example 267b, 2-((R/S)-1-acryloyl-4-(3-((3aR,11aS)-6-chloro-10-methyl-1-(6-methyl-4-(trifluoromethyl)pyridin-2-yl)-2,11-dioxo-1,2,3,3a,4,10,11,11a-octahydro-5H-benzo[b]pyrrolo[2,3-f][1,4]diazocin-5-yl)propyl)piperazin-2-yl)acetonitrile]",3.03e+06
7,"C=CC(=O)N1CC(c2nc(CN3C[C@H]4CC(=O)N(c5cc(C(F)(F)F)cc(C)n5)[C@@H]4C(=O)N(C)c4cccc(F)c43)n[nH]2)C1 [Example 98, (3aR,11aS)-5-((5-(1-acryloylazetidin-3-yl)-1H-1,2,4-triazol-3-yl)methyl)-6-fluoro-10-methyl-1-(6-methyl-4-(trifluoromethyl)pyridin-2-yl)-1,3a,4,5,10,11a-hexahydro-2H-benzo[b]pyrrolo[2,3-f][1,4]diazocine-2,11(3H)-dione]",430000
8,"C=CC(=O)N1CC(c2cccc(CN3C[C@H]4CC(=O)N(c5cc(C(F)(F)F)cc(C)n5)[C@@H]4C(=O)N(C)c4cccc(F)c43)c2)C1 [Example 127, (3aR,11aS)-5-(3-(1-acryloylazetidin-3-yl)benzyl)-6-fluoro-10-methyl-1-(6-methyl-4-(trifluoromethyl)pyridin-2-yl)-1,3a,4,5,10,11a-hexahydro-2H-benzo[b]pyrrolo[2,3-f][1,4]diazocine-2,11(3H)-dione]",650000
9,"C=CC(=O)N1CC(c2nc(CN3C[C@H]4CC(=O)N(c5cc(C(F)(F)F)cc(C)n5)[C@@H]4C(=O)N(C)c4cccc(F)c43)nn2C)C1 [Example 100, (3aR,11aS)-5-((5-(1-acryloylazetidin-3-yl)-1-methyl-1H-1,2,4-triazol-3-yl)methyl)-6-fluoro-10-methyl-1-(6-methyl-4-(trifluoromethyl)pyridin-2-yl)-1,3a,4,5,10,11a-hexahydro-2H-benzo[b]pyrrolo[2,3-f][1,4]diazocine-2,11(3H)-dione]",100000
10,"C=CC(=O)N1CC(F)(COCCN2C[C@H]3CC(=O)N(c4cc(C(F)(F)F)cc(C)n4)[C@@H]3C(=O)N(C)c3cccc(Cl)c32)C1 [Example 285, (3aR,11aS)-5-(2-((1-acryloyl-3-fluoroazetidin-3-yl)methoxy)ethyl)-6-chloro-10-methyl-1-(6-methyl-4-(trifluoromethyl)pyridin-2-yl)-1,3a,4,5,10,11a-hexahydro-2H-benzo[b]pyrrolo[2,3-f][1,4]diazocine-2,11(3H)-dione]",1.98e+06
11,"Cc1cc(C(F)(F)F)cc(N2C(=O)C[C@@H]3CN(CC45CC(NC(=O)/C=C/CN(C)C)(C4)C5)c4c(C)cccc4N(C)C(=O)[C@H]32)n1 [Example 178, (E)-N-(3-(((3aR, 11aS)-6,10-dimeth-yl-1-(6-methyl-4-(trifluoromethyl)-pyridin-2-yl)-2,11-dioxo-1,2,3,3a,4, 10,11,11a-octa-hydro-5H-benzo [b]pyrrolo[2,3-f] [1,4]diazocin-5-yl)methyl)bicyclo [1.1.1]pentan-1-yl)-4-(dimethyl-amino)but-2-enamide]",1.6e+06
12,"C=CC(=O)N1C[C@@H](F)[C@@H](n2cc(CN3C[C@H]4CC(=O)N(c5cc(C(F)(F)F)cc(C)n5)[C@@H]4C(=O)N(C)c4cccc(C)c43)cn2)C1 (single isomer, unassigned) [Example 325d]",1.77e+06
13,"C=CC(=O)N1Cc2nc(CN3C[C@H]4CC(=O)N(c5cc(C(F)(F)F)cc(C)n5)[C@@H]4C(=O)N(C)c4cccc(Cl)c43)cn2C[C@H]1C(F)(F)F (racemic) [Example 293a, (3aR,11aS)-5-(((S/R)-7-acryloyl-6-(trifluoromethyl)-5,6,7,8-tetrahydroimidazo[1,2-a]pyrazin-2-yl)methyl)-6-chloro-10-methyl-1-(6-methyl-4-(trifluoromethyl)pyridin-2-yl)-1,3a,4,5,10,11a-hexahydro-2H-benzo[b]pyrrolo[2,3-f][1,4]diazocine-2,11(3H)-dione]",880000
14,"C=C(CN(C)C)C(=O)N1CCc2cc(CN3C[C@H]4CC(=O)N(c5cc(C(F)(F)F)cc(C)n5)[C@@H]4C(=O)N(C)c4cccc(F)c43)ccc2C1 [Example 154, (3aR, 11aS)-5-((2-(2-((dimethylamino)methyl)acryloyl)-1,2,3,4-tetrahydroisoquinolin-6-yl)methyl)-6-fluoro-10-methyl-1-(6-methyl-4-(trifluoromethyl)pyridin-2-yl)-1,3a,4,5,10,11a-hexahydro-2H-benzo[b]pyrrolo[2,3-f][1,4]diazocine-2,11(3H)-dione]",2.3e+06
